According to patent US20250066338A1, “CERTAIN 3-AZABICYCLO[3.1.0]HEXANES AS GLP-1 RECEPTOR MODULATORS” (AstraZeneca AB, priority 2021, published 2025):

Legend:
[1] = target: human GLP-1R receptor (Homo sapiens (Human), UniProt P43220, L260F); experiment: CHOK1 GLP-1R cAMP Assay; type: cell-based; conditions: CHO-K1 cell line stably expressing human GLP-1R; HTRF cAMP; agonist activity
Experimental: A cell line stably expressing the human GLP-1R receptor (NM 002062.5, including the naturally-occurring variant Leu260Phe) in a CHO-K1 (ATCC® CCL-61™) was used for assay.
GLP-1 receptor mediated agonist activity was determined in a cell based assay measuring cyclic adenosine monophosphate (cAMP) levels in cells using Homogeneous Time-Resolved Fluorescence (HTRF) cAMP detection kit (CisBio catalog #62AM4PEC, cAMP Gs Dynamic range kit). The cAMP detection method is based on a competitive immunoassay, in which cAMP produced by the cells and cAMP labeled with the dye d2 compete for binding to a Europium-Cryptate-labeled anti-cAMP antibody. The specific HTRF signal is inversely proportional to the concentration of cAMP.
Compounds were added to individual well in 384 well-assay plates (Greiner #784076) using an Echo (LabCyte) dispenser from 10 mM stocks. Varying concentration of compounds were added to wells, and DMSO was used to normalize each well to a volume of 100 nL. A dose response curve of GLP1(7-36)NH2 (Bachem H-6795) was included in each run. 5 μL of cAMP concentration response standards are applied in specified wells in the assay plates. Cryo-preserved cells are thawed and resuspended in assay buffer pre-heated to 37° C. (20 mM HEPES pH 7.4, lx Hank's Balanced Salt Solution (HBSS, Life Technologies #14065) supplemented with 0.1% (w/v) bovine serum albumin (Sigma, A-7030). Cells were centrifuged at 250*g for 5 min at rt, and resuspended in room tempered assay buffer to a final density of 0.16*10^6 cell/mL, to deliver 800 cells/well. 5 μL of assay buffer with 1 mM 3-isobutyl-1-methylxanthin (IBMX; Sigma cat I-7018) was dispensed per well in assay plates using a multidrop combi (Thermo Scientific) subsequently 5 μL of cell suspension was distributed to relevant wells in the assay using a multidrop dispenser. Assay plates were incubated 20 min at rt.
Detection reagents, Europium-Cryptate-labeled anti-cAMP antibody and cAMP labeled with the dye d2, are diluted in lysis buffer, provided by the manufacturer. 5 μL of each detection reagent is supplemented to each assay well using a multidrop dispenser. Assay plates are incubated in the dark for at least one h. The HTRF signal is measured using the HTRF module (excitation: 337 nm, emission A: 665 nm and emission B: 620 nm) in Pherastar FSX (BMG Labtech).
Raw data were converted to pM cAMP using the cAMP standard curve included in each run. Converted data were further analyzed in Genedata Screener (Genedata) and EC50 determinations were made from agonist dose-response curves analyzed with a curve fitting program using a 4-parameter logistic dose response equation (Equation y=A+((B−A)/1+((C/x)^D))) where A is no stimulation, B is full stimulation, C is the EC50 and D is the Hill slope). The percent effect was determined relative to a saturating concentration of a full GLP-1R agonist (GLP1(7-36)NH2 has 100% effect in this assay setup).

[2] = target: GLP-1R in EndoC-βH1 cells (Homo sapiens (Human), UniProt P43220); experiment: EndoC cAMP Accumulation Assay; type: cell-based; conditions: EndoC-βH1 human pancreatic beta cell line; HTRF cAMP accumulation
Chain of GLP-1R in EndoC-βH1 cells (P43220 24-463): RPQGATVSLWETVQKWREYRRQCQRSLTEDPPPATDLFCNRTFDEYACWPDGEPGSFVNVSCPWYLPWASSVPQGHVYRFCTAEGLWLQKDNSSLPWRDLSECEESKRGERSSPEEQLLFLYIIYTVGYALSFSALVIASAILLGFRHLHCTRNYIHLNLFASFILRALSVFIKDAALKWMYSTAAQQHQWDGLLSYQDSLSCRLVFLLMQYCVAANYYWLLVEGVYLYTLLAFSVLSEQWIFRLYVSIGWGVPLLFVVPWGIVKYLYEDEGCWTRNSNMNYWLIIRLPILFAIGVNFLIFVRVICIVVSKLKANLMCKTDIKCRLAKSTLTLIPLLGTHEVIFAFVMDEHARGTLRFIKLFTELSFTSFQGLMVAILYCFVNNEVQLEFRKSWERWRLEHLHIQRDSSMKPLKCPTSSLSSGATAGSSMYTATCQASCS
Source text: EndoC cAMP Accumulation Assay
A HTRF cAMP assay (cAMP Gs dynamic kit; CisoBio Cat #62AM4PEJ) was used to identify agonists of GLP-1R in a pancreatic insulinoma cell line (EndoC-βH1). […] EndoC-βH1 cells have detectable GLP-1R messenger ribonucleic acid (mRNA) as detected by quantitative polymerase chain reaction (qPCR). […] The EndoC-βH1 cell line is a valid model of human beta cells and applicable for screenings to identify novel drug target candidates (Mol. Metab., 2018, 8, 144-157). CisBio HTRF cAMP kits are based on a competitive immunoassay using cryptate-labelled anti-cAMP antibody and d2-labeled cAMP. The detection kit is intended for the direct quantitative determination of cAMP. The specific signal (i.e. energy transfer) is inversely proportional to the concentration of cAMP in the standard or sample. Test compounds (10 mM in DMSO) were diluted into assay buffer (HBSS (Sigma #H8264) supplemented with 25 mM HEPES (Gibco #15630, pH 7.4), 0.1% BSA (Sigma #A3059) and 0.5 mM IBMX (Sigma #17018) included fresh on the day of the assay) into 96 well U-bottom plates (Greiner #650201). Diluted compounds were transferred to ECHO source polypropylene plates (Labcyte #P-05525) and dose response curves were dispensed acoustically using ECHO 550 into black shallow-well u-bottom 384-well HTRF Assay Plates (Corning 4514).
Cryovials of EndoC-H1 (supplied at 1×10e^7 cells/vial) were used directly for screening. The cryovials and were removed from N2 (1) and thawed rapidly in a 37° C. water bath. The cells were resuspended in assay buffer and centrifuged at 300 g for 5 min. Cells were resuspended in assay buffer at the appropriate concentration, typically at 12e5 cells per mL (3000 cells per well, dependent on cell batch) and 2.5 μL diluted cells were added to all wells of destination plate by Multidrop combi reagent dispenser (Thermofisher). The plates were incubated at rt for 30 min. The assay was stopped by adding 2.5 μL anti-cAMP cryptate solution to all wells and 2.5 μL cAMP-d2 solution (both diluted 1:20 in lysis buffer) to columns 1-22 by Combi drop. A volume of 2.5 μL cAMP-d2 solution was added to wells E23 to P24 and 2.5 μL lysis buffer added to wells A23 to D24 by multichannel pipette. The plates were incubated at rt for 1 h and read on an Envision plate reader using excitation wavelength of 320 nm and emission of […] and 660 nm.
Raw data from Envision is converted to % DeltaF according to the manufacturer's instructions. Dose response curves are analysed via 4-Parameter Logistical Analysis and assay plate Z′ values obtained. Samples are graphed as percentage (%) activation plots compared to GIP (1-42, Bachem H-5645) with assay window defined by negative control as basal cell cAMP levels and positive control are defined by maximum GIP (82.5 nM) signal. GLP1 (7-36 amide, Bachem H-6795) dose response curve was included on all plates.

Chain of human GLP-1R receptor (P43220 24-463 L260F): as the sequence (P43220 24-463) above, with L237F counted along it

Compound | EC50 [1] [µM] | EC50 [2] [µM]
CCn1cncc1Cn1c(CN2C[C@@H]3[C@H](C2)[C@H]3c2cccc(OCc3ccc(Cl)cc3F)n2)nc2ccc(C(=O)O)cc21 [Example 12, 2-(((1R,5S,6r)-6-(6-((4-Chloro-2-fluorobenzyl)oxy)pyridin-2-yl)-3-azabicyclo[3.1.0]hexan-3-yl)methyl)-1-((1-ethyl-1H-imidazol-5-yl)methyl)-1H-benzo[d]imidazole-6-carboxylic acid] | 0.097 | 0.15
2-(((1R,5S,6S)-6-(6-((4-Cyano-2-fluorobenzyl)oxy)pyridin-2-yl)-3-azabicyclo[3.1.0]hexan-3-yl)methyl)-4-methoxy-1-(((S)-oxetan-2-yl)methyl)-1H-benzo[d]imidazole-6-carboxylic acid [Example 5] | 0.24 | 0.2
COc1cc(C(=O)O)cc2c1nc(CN1C[C@@H]3[C@H](C1)[C@H]3c1cccc(OCc3ccc(C#N)cc3F)n1)n2C[C@@H]1CCO1 [Example 4, 2-(((1R,5S,6S)-6-(6-((4-Cyano-2-fluorobenzyl)oxy)pyridin-2-yl)-3-azabicyclo[3.1.0]hexan-3-yl)methyl)-4-methoxy-1-(((S)-oxetan-2-yl)methyl)-1H-benzo[d]imidazole-6-carboxylic acid] | 0.012 | 0.0058
N#Cc1ccc(COc2ccc(F)c([C@H]3[C@@H]4CN(Cc5nc6ccc(C(=O)O)cc6n5C[C@@H]5CCO5)C[C@@H]43)n2)c(F)c1 [Example 2, 2-(((1R,5S,6S)-6-(6-((4-Cyano-2-fluorobenzyl)oxy)-3-fluoropyridin-2-yl)-3-azabicyclo[3.1.0]hexan-3-yl)methyl)-1-(((S)-oxetan-2-yl)methyl)-1H-benzo[d]imidazole-6-carboxylic acid] | 0.03 | 0.026
COc1cc(C(=O)O)cc2c1nc(CN1C[C@@H]3[C@H](C1)[C@H]3c1nc(OCc3ccc(Cl)cc3F)ccc1Cl)n2C[C@@H]1CCO1 [Example 18, 2-(((1R,5S,6S)-6-(3-Chloro-6-((4-chloro-2-fluorobenzyl)oxy)pyridin-2-yl)-3-azabicyclo[3.1.0]hexan-3-yl)methyl)-4-methoxy-1-(((S)-oxetan-2-yl)methyl)-1H-benzo[d]imidazole-6-carboxylic acid] | 0.066 | 0.042
CCn1cncc1Cn1c(CN2C[C@@H]3[C@H](C2)[C@H]3c2cccc(OCc3ccc(Cl)cc3F)n2)nc2c(OC)cc(C(=O)O)cc21 [Example 14, 2-(((1R,5S,6r)-6-(6-((4-Chloro-2-fluorobenzyl)oxy)pyridin-2-yl)-3-azabicyclo[3.1.0]hexan-3-yl)methyl)-1-((1-ethyl-1H-imidazol-5-yl)methyl)-4-methoxy-1H-benzo[d]imidazole-6-carboxylic acid] | 0.03 | 0.0074
COc1cc(C(=O)O)cc2c1nc(CN1C[C@@H]3[C@H](C1)[C@H]3c1nc(OCc3ccc(C#N)cc3F)ccc1F)n2C[C@@H]1CCO1 [Example 1, 2-(((1R,5S,6S)-6-(6-((4-Cyano-2-fluorobenzyl)oxy)-3-fluoropyridin-2-yl)-3-azabicyclo[3.1.0]hexan-3-yl)methyl)-4-methoxy-1-(((S)-oxetan-2-yl)methyl)-1H-benzo[d]imidazole-6-carboxylic acid] | 0.0077 | 0.005
N#Cc1ccc(COc2cccc([C@H]3[C@@H]4CN(Cc5nc6c(Cl)cc(C(=O)O)cc6n5C[C@@H]5CCO5)C[C@@H]43)n2)c(F)c1 [Example 8, 4-Chloro-2-(((1R,5S,6S)-6-(6-((4-cyano-2-fluorobenzyl)oxy)pyridin-2-yl)-3-azabicyclo[3.1.0]hexan-3-yl)methyl)-1-(((S)-oxetan-2-yl)methyl)-1H-benzo[d]imidazole-6-carboxylic acid] | 0.02 | 0.01
N#Cc1ccc(COc2cccc([C@H]3[C@@H]4CN(Cc5nc6ccc(C(=O)O)cc6n5C[C@@H]5CCCO5)C[C@@H]43)n2)c(F)c1 [Example 6, 2-(((1R,5S,6S)-6-(6-((4-Cyano-2-fluorobenzyl)oxy)pyridin-2-yl)-3-azabicyclo[3.1.0]hexan-3-yl)methyl)-1-(((S)-tetrahydrofuran-2-yl)methyl)-1H-benzo[d]imidazole-6-carboxylic acid] |  | 0.29
